According to ChEMBL document CHEMBL4373746, “Structural attributes influencing unbound tissue distribution” (Eur J Med Chem, 2020):

Experiments:
[1] = Fraction unbound in Wistar Han rat heart at 2 uM incubated for 6 hrs by equilibrium dialysis method
[2] = Fraction unbound in Wistar Han rat plasma at 2 uM incubated for 6 hrs by equilibrium dialysis method
[3] = Total plasma concentration in Wistar Han rat at 1 to 2 mg/kg, iv infused for 10 to 20 hrs by LC-MS/MS analysis; settings: in vivo
[4] = Unbound tissue partition coefficient, ratio of drug level in skeletal muscle to plasma in Wistar Han rat at 1 to 2 mg/kg, iv infused for 10 to 20 hrs by LC-MS/MS analysis; settings: skeletal muscle/plasma
[5] = Unbound tissue partition coefficient, ratio of drug level in liver to plasma in Wistar Han rat at 1 to 2 mg/kg, iv infused for 10 to 20 hrs by LC-MS/MS analysis; settings: liver/plasma
[6] = Fraction unbound in Wistar Han rat white adipose tissue at 2 uM incubated for 6 hrs by equilibrium dialysis method
[7] = Unbound tissue partition coefficient, ratio of drug level in heart to plasma in Wistar Han rat at 1 to 2 mg/kg, iv infused for 10 to 20 hrs by LC-MS/MS analysis; settings: heart/plasma
[8] = Drug concentration in total brain in Wistar Han rat at 1 to 2 mg/kg, iv infused for 10 to 20 hrs by LC-MS/MS analysis; settings: in vivo
[9] = Unbound tissue partition coefficient, ratio of drug level in brain to plasma in Wistar Han rat at 1 to 2 mg/kg, iv infused for 10 to 20 hrs by LC-MS/MS analysis; settings: brain/plasma
[10] = Fraction unbound in Wistar Han rat brain at 2 uM incubated for 6 hrs by equilibrium dialysis method
[11] = Drug concentration in total liver in Wistar Han rat at 1 to 2 mg/kg, iv infused for 10 to 20 hrs by LC-MS/MS analysis; settings: in vivo
[12] = Drug concentration in total heart in Wistar Han rat at 1 to 2 mg/kg, iv infused for 10 to 20 hrs by LC-MS/MS analysis; settings: in vivo
[13] = Fraction unbound in Wistar Han rat liver at 2 uM incubated for 6 hrs by equilibrium dialysis method
[14] = Drug concentration in total skeletal muscle in Wistar Han rat at 1 to 2 mg/kg, iv infused for 10 to 20 hrs by LC-MS/MS analysis; settings: in vivo
[15] = Unbound tissue partition coefficient, ratio of drug level in adipose to plasma in Wistar Han rat at 1 to 2 mg/kg, iv infused for 10 to 20 hrs by LC-MS/MS analysis; settings: adipose/plasma
[16] = Fraction unbound in Wistar Han rat skeletal muscle at 2 uM incubated for 6 hrs by equilibrium dialysis method
[17] = Apparent permeability of the compound across dog RRCK cells by MDCK-LE assay
[18] = Drug concentration in total white adipose tissue in Wistar Han rat at 1 to 2 mg/kg, iv infused for 10 to 20 hrs by LC-MS/MS analysis; settings: in vivo

Compound	fraction unbound at 6 h, 2 µM [1]	fraction unbound at 6 h, 2 µM [2]	Cp [3]	Kp uu [4]	Kp uu [5]	fraction unbound at 6 h, 2 µM [6]	Kp uu [7]	Ct [8]	Kp uu [9]	fraction unbound at 6 h, 2 µM [10]	Ct [11]	Ct [12]	fraction unbound at 6 h, 2 µM [13]	Ct [14]	Kp uu [15]	fraction unbound at 6 h, 2 µM [16]	Papp [17]	Ct [18]
CC(C)(CC1Cc2ccccc2C1)NC[C@@H](O)COc1cc(C2CC3CC2C2C(C(=O)O)C32)ccc1C#N (some centres undefined)	0.00108	0.0104	54 ng/mL	0.08	2.2	0.0322	0.19	1 ng/mL	0.0025	0.00176	400 ng/mL	86 ng/mL	0.00258	16 ng/mL	0.36	0.00211	5.3 ×10⁻⁶ cm/s	4.7 ng/mL
CC1(C)CN(CCC#N)C(=O)[C@@H]1Oc1ccc(C#N)c(C(F)(F)F)c1	0.152	0.358	160 ng/mL	0.48	1	0.185	0.55	91 ng/mL	0.11	0.0717	500 ng/mL	210 ng/mL	0.122	110 ng/mL	0.81	0.263	40 ×10⁻⁶ cm/s	250 ng/mL
CN(C)C[C@@H](OC(=O)N1Cc2c(NC(=O)C3(C(F)(F)F)CC3)n[nH]c2C1(C)C)c1ccccc1	0.0941	0.362	28 ng/mL	1.4	3.3	0.205	1.8	2.3 ng/mL	0.013	0.0543	420 ng/mL	190 ng/mL	0.0749	97 ng/mL	1.6	0.138	15 ×10⁻⁶ cm/s	79 ng/mL
CCCC(Oc1ccc(-n2cc3ccccc3n2)cc1)c1ccc(C(=O)NCCC(=O)O)cc1 (centres undefined)	0.00543	0.0034	68 ng/mL	0.38	14	0.105	1.8	1.9 ng/mL	0.018	0.00341	420 ng/mL	80 ng/mL	0.00607	12 ng/mL	0.024	0.00584	9.9 ×10⁻⁶ cm/s	0.77 ng/mL
C[C@H]1c2cccc(CCC(C)(C)O)c2C[C@H](CO)N1C(=O)Cc1c(Cl)cccc1Cl	0.016	0.012	150 ng/mL	1.3	9.8	0.0547	2.3	39 ng/mL	0.35	0.0113	690 ng/mL	190 ng/mL	0.0158	95 ng/mL	4.9	0.0161	27 ×10⁻⁶ cm/s	110 ng/mL
O=C(O)c1c[nH]c2cc(Cl)c(-c3ccc(CC(=O)N4CCOCC4)cc3)cc12	0.0746	0.00645	72 ng/mL	0.16	40	0.386	3.4	0.38 ng/mL	0.0018	0.181	210 ng/mL	21 ng/mL	0.0789	0.89 ng/mL	1.6	0.133	2.4 ×10⁻⁶ cm/s	2 ng/mL
NC(=O)c1c(-c2ccc(Oc3ccc(Cl)cc3)cc2)nn([C@@H]2CCCN(C(=O)/C=C/CO)C2)c1N	0.013	0.0219	55 ng/mL	1.3	4.5	0.113	2.7	2.4 ng/mL	0.011	0.00529	470 ng/mL	240 ng/mL	0.0115	97 ng/mL	2	0.0154	5.5 ×10⁻⁶ cm/s	21 ng/mL
O=C(c1cccc(N2CCNCC2)n1)N1CCC(c2ccccc2F)CC1	0.057	0.0995	42 ng/mL	2	9.4	0.393	5.3	14 ng/mL	0.078	0.0227	960 ng/mL	410 ng/mL	0.0394	170 ng/mL	2.4	0.0483	24 ×10⁻⁶ cm/s	28 ng/mL
C[C@H]1C[C@H]2CSC(N)=N[C@@]2(c2cc(C#N)ccc2F)CO1	0.668	0.796	84 ng/mL	1.3	8.5	1	3.9	230 ng/mL	2.1	0.573	990 ng/mL	380 ng/mL	0.548	240 ng/mL	1.4	0.344	29 ×10⁻⁶ cm/s	86 ng/mL
N#Cc1ccc(N2N=C(N3CCC(C(=O)N4CCC(O)CC4)CC3)C[C@H]2C2CCCC2)cc1Cl	0.00283	0.00962	240 ng/mL	0.59	4.3	0.109	0.68	16 ng/mL	0.029	0.00431	1000 ng/mL	550 ng/mL	0.00991	150 ng/mL	5.9	0.00952	20 ×10⁻⁶ cm/s	120 ng/mL
Cn1nc(C(=O)NCCN2CCOCC2)cc1-c1cc2ccccc2[nH]1	0.0422	0.176	29 ng/mL	0.57	4.4	0.189	1.3	19 ng/mL	0.12	0.0291	300 ng/mL	150 ng/mL	0.0714	42 ng/mL	1.1	0.0664	33 ×10⁻⁶ cm/s	29 ng/mL
Cc1ccc(NC(=O)c2cc(Oc3ccc(S(C)(=O)=O)cc3)c3c(c2)OC(C)(C)C3)nc1	0.0109	0.0809	68 ng/mL	0.18	0.24	0.00216	0.43	69 ng/mL	0.1	0.0077	150 ng/mL	220 ng/mL	0.00864	89 ng/mL	0.41	0.011	22 ×10⁻⁶ cm/s	1000 ng/mL
COc1cc2c(cc1Cc1ccccc1)C[C@H](N)C(=O)N2OC(=O)N(C)C	0.209	0.354	18 ng/mL	0.46	0.74	0.214	2.5	16 ng/mL	0.1	0.0385	33 ng/mL	76 ng/mL	0.147	32 ng/mL	1.1	0.0886	38 ×10⁻⁶ cm/s	33 ng/mL
